Assay [1] has as its system Stichococcus bacillaris SAG 379-1a CCAP 379/1a. The assay can be described thus: Algal efficacy test of dry paint film (modified ASTM 5589, 6-well plates). Type of assay: cell-based. To be noted: 3 weeks; for Total conc: total biocide concentration in paint taken as minimum inhibitory concentration, pass level ≧75% inhibition, for zoxamide the maximum concentration tested, pass not reached. As for the experimental part:
(§1) Slurries containing 33% antimicrobial active ingredients (Zoxamide and ZnPT) were post added to a white, acrylic/silicone based outdoor paint free of biocides to give a total active ingredient concentration of 10000 and 1000 ppm respectively. These paints were then diluted with an antimicrobial free acrylic/silicone based paint and mixed to prepare targeted concentrations of antimicrobial compounds for the testing. The total biocides concentrations tested were 125, 250, 500, 1000, 2000 and 5000 ppm. After biocides addition or dilution, the paints were mixed 90 seconds with the horse power shaker (AXEL 75M3372/Agitateur SO-10MI) until uniformity was achieved. Paints containing different antimicrobial compounds at the same levels were mixed together in order to obtain the desired ratio of antimicrobial compounds. After one day, the paints were applied to Schleicher & Schuell filter paper at 280 μm wft and dried for 3 days at room temperature avoiding direct exposure to sunlight. Square discs (1.6 cm×1.6 cm) were cut out from each panel and were used as the substrate for algal efficacy tests. This sample size allowed for an agar border when the sample disc was placed into the well of the test plate.
(§2) Algal efficacy was tested according to modified ASTM 5589 which is a standard accelerated test method for determining resistance of various coatings (including paints) to algal defacement. To accommodate for high-throughput screening, this method was scaled down from petri dishes to 6-well plates. Bold Modified Basal Freshwater Nutrient Solution was used as growth medium. A single coated filter paper coupon was placed with a pair of sterile forceps at the center of the agar plug (on top) with the painted surface facing upwards. Algal inoculums were prepared by mixing equal concentrations (1×10^6 cfu/ml) and equal volumes of exponentially growing algae cultures.
(§3) Each well that contains a tested coupon was inoculated with 1750 μl of algal suspensions (1×10^6 cfu/ml) making sure that the whole surface (paint film as well as the agar surrounding it) was evenly covered. The plates were incubated at room temp (21° C.-25° C.) with cyclic exposure to light and dark phases, for a period of three weeks.
(§4) At the end of the three week incubation period, the samples were scored for percent inhibition regarding visible algal growth compared to the blank sample (0% inhibition).
(§5) The SI is calculated based on F. C.
(§6) SI value of <1 in the formula indicates a synergism of the blended biocides exists.
(§7) The minimal targeted inhibition was set at 75%, meaning a coupon with at least 75% algal growth inhibition was considered as a pass.

The next assay has as its system Chlorella sp. ATCC 7516. The description is as above. To be noted: 3 weeks; for Total conc: total biocide concentration in paint taken as minimum inhibitory concentration, pass level ≧75% inhibition, for zoxamide the maximum concentration tested, pass not reached. Type of assay: cell-based. As for the experimental part:
as §1, §2, §3, §4, §5, §6, §7

Setting [2] is: total conc 500 ppm in paint, visible algal growth vs blank.

For orientation: % inhibition means the relative decrease from the control value, in per cent. `[O-][n+]1ccccc1[S][Zn][S]c1cccc[n+]1[O-]` [ZnPT, bis(2-pyridylthio)zinc 1,1′-dioxide]: the Total conc (in assay [1]; in the assay with Chlorella sp. ATCC 7516) was 500 ppm in each case. Moreover, the “% inhibition” value in assay [1] (setting [2]) was found to be 85%; in the assay with Chlorella sp. ATCC 7516 (setting [2]), 90%.
As a reminder, the inhibition is how much of the control response was suppressed. On to `CCC(C)(NC(=O)c1cc(Cl)c(C)c(Cl)c1)C(=O)CCl` (centres unmarked) [Zoxamide, 3,5-Dichloro-N-(3-chloro-1-ethyl-1-methyl-2-oxopropyl)-4-methylbenzamide], for which the inhibition at 5000 ppm in assay [1] (Stichococcus bacillaris, 504 h, total conc 5000 ppm in paint, visible algal growth vs blank) was 45%; with Chlorella sp. ATCC 7516 (504 h, total conc 5000 ppm in paint, visible algal growth vs blank), 60%. Further, the Total conc (in assay [1]; in the assay on Chlorella sp. ATCC 7516) was 5000 ppm throughout.

These data come from US9204654B2, “Synergistic combination of a zoxamide compound and zinc pyrithione for dry film protection” (Rohm and Haas Company, priority 2012, dated 2015).
